The results in this text go back to paper PMC12392461, “Beyond Estrogenicity: A Comparative Assessment of Bisphenol A and Its Alternatives in In Vitro Assays Questions Safety of Replacements” (Environmental Science & Technology, 2025).

Read-outs that look alike come from different tables or passages of the source.

Data set [1] deals with Mitochondrial Membrane Potential. Nature of the data set: cells. Conditions: for EC10, linear / logEC10: MMP bioassay, dosing range all; for EC10, linear: linear model; for logEC10: log-logistic model; for Specificity ratio (SRbaseline) SRMMP: against baseline cytotoxicity; for Specificity ratio (SRcytotoxicity) SRMMP: human, 24 h; for Relative effect potency REPMMP: relative to BPA. An excerpt:
All bioassay media components and the ERα-UAS-bla GripTite and PPARγ-UAS-bla cells were obtained from Thermo Fisher Scientific (Waltham, MA, USA). AREc32 reporter gene cells based on MCF7 were provided by C. Roland Wolf (Cancer Research UK); AhR CALUX cells (H4L7.5c2 derived from H4IIe) were provided by Michael Denison (UC Davis, USA); and SH-SY5Y cells were purchased from Sigma-Aldrich.
(§1) Cell culture conditions and bioassay protocols including response detection are provided in Text S2.1–2.4 and Table S3. − Cell viability was determined from cell confluency using an IncuCyte S3 Live-Cell Analysis System (Sartorius AG, Essen, Germany) before and after exposure, except for SH-SY5Y cells (live–dead staining with Nuclear Green LcS1 and propidium iodide, Abcam, UK). For metabolic activation experiments, cell viability was assessed using the ToxBLAzer DualScreen Kit (Thermo Fisher Scientific) to capture the remaining toxicity in ERα-UAS-bla GripTite after treatment with the aCYP catalyst (details in Text S2.4).
For ARE, the concentration that triggered an induction ratio of 1.5 (ECIR1.5) was used as the benchmark value, as detailed in Text S2.5. IC10 values also served as a threshold for data analysis in all assays; only concentrations below IC10 were considered when deriving EC10 or ECIR1.5. […]
S2: Cell culture and bioassays
S2.1: Cell Culturing Conditions
All suppliers and sources are given in detail in SI-Excel S3. The bioassay media for the different assays were prepared as follows: Assay medium for ER alpha-UAS-bla GripTite (ERα) and […]
2% charcoal-stripped FBS, and 100 U/mL penicillin-streptomycin. MitoOxTox and AhR assay medium was comprised of 90% DMEM with GlutaMAX, supplemented with 10% FBS, and 100 U/mL penicillin-streptomycin. […]
S2.2: Cell Seeding and Incubation. For all bioassays, cell suspensions in the respective assay medium were dispensed into each well of 384-well plates using a MultiFlo Dispenser (Biotek, (now Agilent), Winooski, VT, U.S.). After seeding, the plates were incubated at 37° C and 5% CO₂ for […]. The final cell densities and plate types were as follows: Black poly-D-lysine […]
6500 cells/well, ERα: 5000 cells/well. White 384-well plates with a clear bottom (Product No.
(§2) NYC, U.S.) for AhR: 3250 cells/well. Black Collagen I coated plates were used (Product No.
(§3) S2.3: Chemical Dosing and Assay Analysis Procedures. The dosing procedure and high-throughput assay workflow have been described in detail before. 9 The dosing concentrations […]
Stock solutions were then either

The subject of data set [2] is SH-SY5Y cells. The following applies: for IC10, SH-S5Y5, NOI: cytotoxicity, NOI assay cells. The procedure: as §1, with “S2.4). […]” for “S2.4).”
We measured the cytotoxicity of BPA and its alternatives in HEK293H (PPARγ), HEK293T (ERα), H4IIe (AhR CALUX), MCF7 (ARE/MMP), and differentiated SH-SY5Y cells (Table S6). […]
medium, supplemented with 2% B-27 Supplement and 2 mM GlutaMAX Supplement. SH - SY5Y cells were differentiated with 10 µM all-trans retinoic acid prior to the assay.
S2.2: Cell Seeding and Incubation. For all bioassays, cell suspensions in the respective assay medium were dispensed into each well of 384-well plates using a MultiFlo Dispenser (Biotek, (now Agilent), Winooski, VT, U.S.). After seeding, the plates were incubated at 37° C and 5% […]
as §2, §3
Stock solutions were then either added directly to the respective cell culture medium or evaporated under nitrogen, followed by replenishment with fresh medium. The final solvent content in each well was kept below 1% for methanol, 0% for acetonitrile.
Dosing plates were prepared as 11 -step serial dilutions using a Hamilton Microlab Star robotic system (Hamilton, Bonaduz, Switzerland), and chemicals were dosed in duplicates by transferring 10 μL twice from the dosing plates to the cell plates . After quantifying cell confluency as described in S2. 4., the exposed cells were incubated at 37° C and 5% CO₂ for an additional 24 h. All chemicals were tested in all assays with at least three independent […]
S2.4: Cell Viability Measurement s and bioanalytical protocols . The confluency as a measure of cell viability was determined with an IncuCyte S3 Live -Cell Analysis System (Sartorius AG, Essen, Germany). With this method the confluency of cells in a microscopy image are normalized to control wells without cells and compared before and after 24 hours of exposure.
This method has been described previously 13. Cell viability of SH-SY5Y cells was measured […]
propidium iodide (PI, Abcam, Cambridge, U.K.).14 Nuclear Green LCS1 is a membrane-permeable dye that stains the nuclei of all cells, whereas PI only enters cells with compromised membrane integrity (non-viable cells). After staining, live cells show green nuclei without red fluorescence, while dead cells display both green and red nuclear fluorescence due to PI […]
intercalation. […]

Where [3] appears, read: NOI bioassay cytotoxicity, dosing range all, linear model.
Where [4] appears, read: NOI bioassay cytotoxicity, dosing range all, log-logistic model.
Setting [5] is: Arec32, read-out: EC10, MMP (M).
Setting [6] is: Arec32, read-out: EC10, linear transformed.
The mark [7] stands for this setting: NOI bioassay cytotoxicity, dosing range all.

As for `CC1(C)C(O)C(C)(C)C1O` (racemic) [r-TMCD, 2,2,4,4-Tetramethyl-1,3-cyclobutanediol (racemate)], in data set [1], the “EC10, linear” value is “no effect” and the logEC10 entry is listed as “no effect”. Besides, the “IC10, linear” value in data set [2] (setting [3]) was “no cytotoxicity”. The logIC10 entry in data set [2] (setting [4]) was “no cytotoxicity”.
As for `O=S(=O)(c1ccc(O)cc1)c1ccccc1O` [2,4-BPS, 2,4'-Dihydroxydiphenyl sulfone], the EC10 was 5.9e-05 M in data set [1] (Arec32, read-out: EC10, MMP); 5.9e-05 M in data set [1] (setting [5]); 4.26e-05 M in data set [1] (Arec32, read-out: EC10, linear); 5.93e-05 M in data set [1] (setting [6]); 5.89e-05 M in data set [1] (Arec32, read-out: logEC10). The “Specificity ratio (SRbaseline) SRMMP” value in data set [1] turned out to be 11.47. Moreover, the “Specificity ratio (SRcytotoxicity) SRMMP” value in data set [1] is on record as 14.98. In addition, the “Relative effect potency REPMMP” value in data set [1] stood at 0.47. In addition, in data set [2] (human, 24 h), the “Toxic ratio (TR) TRNOI” value is 1.29. Besides, the logIC10 in data set [2] (human, 24 h) is on record as -3.31.
For the compound `CC(C)(c1ccc(OCC2CO2)cc1)c1ccc(OCC2CO2)cc1` (centres unmarked) [BADGE, Bisphenol A diglycidyl ether], in data set [1] (setting [6]), the EC10 came out at 9.1e-05 M. Also, in data set [1], the “EC10, linear” value is “no effect” and the logEC10 entry was “no effect”. Moreover, the “IC10, linear transformed” value in data set [2] (setting [7]) was determined as 5.73E-05. Moreover, the “IC10, linear” value in data set [2] (setting [3]) stood at 5.39E-05. For the same compound, the logIC10 in data set [2] (setting [4]) was -4.24. Further, in data set [2] (against baseline cytotoxicity), the “Toxic ratio (TR) TRNOI” value is given as 0.32. Besides, the “IC10, SH-S5Y5, NOI” value in data set [2] was found to be 57.3 µM.
As for `CC(C)CC(C)(c1ccc(O)cc1)c1ccc(O)cc1` [BP-MIBK, 4,4'-(1,3-Dimethylbutylidene)diphenol], the EC10 in data set [1] (Arec32, read-out: EC10, MMP) was 1.14e-05 M; in data set [1] (setting [5]), 1.14e-05 M; in data set [1] (Arec32, read-out: EC10, linear), 7.7e-06 M; in data set [1] (setting [6]), 1.12e-05 M; in data set [1] (Arec32, read-out: logEC10), 1.15e-05 M. Also, the “IC10, linear” value in data set [2] is “no cytotoxicity”. Further, the logIC10 in data set [2] (human, 24 h) was -4.10.
For `CC(C)(c1ccc(O)cc1)c1ccc(O)cc1` [BPA, 4,4'-(Propane-2,2-diyl)diphenol, reference compound], the “EC10 (MMP inhibition)” value in data set [1] is 28 µM. The EC10 in data set [1] (Arec32, read-out: EC10, MMP) is 2.8e-05 M; in data set [1] (setting [5]), 2.8e-05 M; in data set [1] (Arec32, read-out: EC10, linear), 2.1e-05 M; in data set [1] (setting [6]), 2.79e-05 M; in data set [1] (Arec32, read-out: logEC10), 2.82e-05 M. In addition, the “Specificity ratio (SRbaseline) SRMMP” value in data set [1] turned out to be 0.92. Moreover, the “Specificity ratio (SRcytotoxicity) SRMMP” value in data set [1] is recorded as 2.92. Besides, in data set [1] (input of the ToxPi score, values up to 1.00), the “log(1/EC10) MMP” value was found to be 0.71. In addition, in data set [1], the “Relative effect potency REPMMP” value was found to be 1.00. For the same compound, the “SR (MMP inhibition)” value in data set [1] (specificity ratio) stood at 3. The “IC10, linear transformed” value in data set [2] (setting [7]) is on record as 2.37E-04. In addition, the “IC10, linear” value in data set [2] (setting [3]) is recorded as “no cytotoxicity”. Moreover, the logIC10 in data set [2] (setting [4]) was -3.62. Also, in data set [2] (against baseline cytotoxicity), the “Toxic ratio (TR) TRNOI” value is reported as 0.0846. For the same compound, in data set [2], the “IC10, SH-S5Y5, NOI” value worked out at 237 µM.
As for `Oc1ccc(C(c2ccc(O)cc2)(C(F)(F)F)C(F)(F)F)cc1` [BPAF, 4,4'-(1,1,1,3,3,3-Hexafluoropropane-2,2-diyl)diphenol], the EC10 in data set [1] (Arec32, read-out: EC10, MMP) is 5.32e-06 M; in data set [1] (setting [5]) it was 5.32e-06 M; in data set [1] (Arec32, read-out: EC10, linear), 3.05e-06 M; in data set [1] (setting [6]), 5.27e-06 M; in data set [1] (Arec32, read-out: logEC10) it was 5.37e-06 M. Further, the “IC10, linear transformed” value in data set [2] (setting [7]) is recorded as 6.64E-05. For the same compound, the “IC10, linear” value in data set [2] (setting [3]) was 7.35E-05. In data set [2] (setting [4]), this compound yielded a logIC10 of -4.18. Moreover, the “IC10, SH-S5Y5, NOI” value in data set [2] turned out to be 66.4 µM.
For the compound `CC(c1ccccc1)(c1ccc(O)cc1)c1ccc(O)cc1` [BPAP, 4,4'-(1-Phenylethylidene)bisphenol], in data set [1] (setting [6]), the EC10 stood at 2.84e-05 M. In data set [1], the “EC10, linear” value is given as “no effect” and the logEC10 entry is reported as “no effect”. In addition, the “IC10, linear transformed” value in data set [2] (setting [7]) is recorded as 1.06E-04. Moreover, the “IC10, linear” value in data set [2] (setting [3]) is recorded as “no cytotoxicity”. Also, in data set [2] (setting [4]), the logIC10 was -3.97. The “IC10, SH-S5Y5, NOI” value in data set [2] came to 106 µM.
With `CC1(C)[C@H](O)C(C)(C)[C@H]1O` [t-TMCD, trans-2,2,4,4-Tetramethyl-1,3-cyclobutanediol], the EC10 in data set [1] (Arec32, read-out: EC10, MMP) was found to be 0.0185 M. For the same compound, in data set [1] (setting [5]), the EC10 turned out to be 0.0185 M. Besides, in data set [1], the “Specificity ratio (SRbaseline) SRMMP” value was 0.0554 and the “Relative effect potency REPMMP” value is 0.00152.
